{
  "source": "patent US20150065717A1",
  "about": "“NIPECOTIC ACID DERIVATIVE AND USE THEREOF FOR MEDICAL PURPOSES” (Toray Industries, Inc., priority 2012, published 2015)",
  "key": {"[1]": {"test_system": "rat diabetic nephropathy model", "experiment": "Pharmacological effect in rat diabetic nephropathy model (streptozotocin)", "type": "in vivo, rat (spontaneously hypertensive rat)", "conditions": "mean±standard error, n=6", "description": "Example Compound 1 was administered to a rat diabetic nephropathy model (International Journal of Molecular Medicine, 2007, vol. 19, p. 571-579; Hypertension, 1998, vol. 32, p. 778-785), and the therapeutic effect of the nipecotic acid derivative (I) or a pharmaceutically acceptable salt thereof on chronic renal disease with diabetic nephropathy was evaluated.\nRats (spontaneously hypertensive rat, male, 12 or 13 weeks old; Charles River Laboratories Japan, Inc.) with diabetic nephropathy induced by administration of an aqueous streptozotocin (Enzo Life Sciences, Inc.) solution (40 mg/kg) into the tail vein were provided as “group with induced diabetic nephropathy”. On the other hand, rats to which water for injection was similarly administered were provided as “untreated group”.\nSix weeks after administration of streptozotocin, urine was collected using a metabolic cage at room temperature for 24 hours. The urinary albumin concentration in the collected urine was measured by the ELISA method. From the urinary albumin concentration and the urine weight, the amount of urinary albumin excretion was calculated.\nTo rats showing pathological conditions of diabetic nephropathy in the group with induced diabetic nephropathy, Example Compound 1 (10 mg/kg) or a positive control compound imidapril (2 mg/kg) was orally administered once per day for 20 days from Day 8 after the administration of streptozotocin. […]\nAfter the last administration of the test substance on Day 27 after administration of streptozotocin, urine was collected using a metabolic cage at room temperature for 24 hours. The urinary albumin concentration in the collected urine was measured by the ELISA method. From the urinary albumin concentration and the urine weight, the amount of urinary albumin excretion was calculated. In addition, on Day 18 after administration of streptozotocin, the systemic systolic pressure was measured by the tail-cuff method. On Day 29 after administration of streptozotocin, blood was collected from the abdominal aorta of each rat, and the plasma glucose concentration was measured. […]"}, "[2]": {"test_system": "rat monocrotaline-administered pulmonary hypertension model", "experiment": "Action on systemic blood pressure in rat monocrotaline-administered pulmonary hypertension model, single dose", "type": "in vivo, rat (SD strain)", "conditions": "single oral dose of 10 mg/kg on day 9 after monocrotaline; Hour 1, 2, 3, 4, 5 and 6 after administration", "description": "Example Compound 1 was administered to monocrotaline-administered pulmonary hypertension model rats in a single dose, and the action of the nipecotic acid derivative (I) or a pharmaceutically acceptable salt thereof on the systemic blood pressure from immediately after the administration was evaluated.\nPulmonary hypertension was induced in Rats (SD strain, male, 11 weeks old; Charles River Laboratories Japan, Inc.) by subcutaneous administration of an aqueous monocrotaline (Sigma Corporation) solution (60 mg/kg) to the back.\nOn Day 7 after administration of monocrotaline, the rats with induced pulmonary hypertension were anesthetized, and hair in the femoral region and the nape was removed, followed by disinfection of the operative field using Isodine solution. […] The blood pressure was analyzed after amplification by Blood Pressure Amplifier, and the heart rate was analyzed via Heart Rate Counter using the pulse waveform as a trigger. […] From immediately after administration of Example Compound 1 or 0.5% aqueous methyl cellulose solution supplemented with 0.5% Tween 80, the mean systemic blood pressure was measured at Hour 1, 2, 3, 4, 5 and 6 after administration."}},
  "data": [
    {"compound": "CCC(=O)NC1(C(=O)N2CCC[C@@H](C(=O)NCc3ccc(C#N)cc3OC(F)(F)F)C2)CCC1", "note": "[Example Compound 1, (R)—N-(4-cyano-2-(trifluoromethoxy)benzyl)-1-(1-propionamidocyclobutanecarbonyl)piperidine-3-carboxamide]", "values": [
      {"measurement": "amount of urinary albumin excretion", "setting": "[1]; Day 27 after streptozotocin, orally once per day for 20 days from Day 8 (Example Compound 1 10 mg/kg, imidapril 2 mg/kg)", "result": "5.41 ± 1.13", "unit": "mg/day"},
      {"measurement": "systemic systolic pressure", "setting": "[1]; day 18 after streptozotocin, 10 mg/kg orally once per day, tail-cuff", "result": "199±6", "unit": "mmHg"},
      {"measurement": "mean systemic blood pressure vs pulmonary hypertension control group", "setting": "[2]", "result": "no significant difference"}
    ]}
  ]
}
